Source: patent publication US8012987B2, “Indolo[2,1-b] quinazole-6,12-dione antimalarial compounds and methods of treating malaria therewith” (The United States of America as represented by the …, priority 1998, dated 2011)
In brackets after ≈: the same amount, converted by molar mass. Read-outs that look alike come from different tables or passages of the source.

How the values were obtained:
Type in all cases: cell-based
[1] = test system: Plasmodium falciparum clone CDC Sierra Leone I (D-6); assay: In vitro inhibition of [3H]hypoxanthine uptake, P. falciparum D-6 clone; conditions: Plasmodium falciparum, read-out: IC50 (D-6)
Procedure: (§1) The in vitro assays were conducted by using a modification of the semiautomated microdilution technique of Desjardins et al.^11 and Chulay et al.^12 Two strains of Plasmodium falciparum clones, from CDC Indochina III (W-2), CDC Sierra Leone I (D-6). […] These solutions were subsequently serially diluted 2-fold with a Biomek 1000® (Beckman, Fullerton, Calif.) over 11 different concentrations. The parasites were exposed to serial dilutions of each compound for 48 h and incubated at 37° C. with 5% O2, 5% CO2, and 90% N2 prior to the addition of [^3H]hypoxanthine. […] Uptake of [^3H]hypoxanthine was measured with a Packard Topcount scintillation counter. […] The values without parentheses indicate culture in blood serum which more closely resemble conditions in a living animal.
(§2) The numbers associated with both W2 and D6 refer to IC50 values and the units are ng/ml.

[2] = test system: Plasmodium falciparum clone Thai TM90C2B; assay: In vitro inhibition of [3H]hypoxanthine uptake, P. falciparum TM90C2B; conditions: Plasmodium falciparum, TM90C2B, values without parentheses: blood serum (footnote: blood plasma) replacing Albumax
Procedure: (§3) The in vitro assays were conducted by using a modification of the semiautomated microdilution technique of Desjardins et al.^11 and Chulay et al.^12 Two strains of Plasmodium falciparum clones, from CDC Indochina III (W-2), CDC Sierra Leone I (D-6). […] They were derived by direct visualization and micromanipulation from patient isolates.^13 Test compounds were initially dissolved in DMSO and diluted 400-fold in RPMI 1640 culture medium supplemented with 25 mM Hepes, 32 mM HaHCO3, and 10% Albumax I® (GIBCO BRL, Grand Island, N.Y.). These solutions were subsequently serially diluted 2-fold with a Biomek 1000® (Beckman, Fullerton, Calif.) over 11 different concentrations. The parasites were exposed to serial dilutions of each compound for 48 h and incubated at 37° C. with 5% O2, 5% CO2, and 90% N2 prior to the addition of [^3H]hypoxanthine. After a further incubation of 18 h, parasite DNA was harvested from each microtiter well using Packard Filtermate 196 Harvester® (Meriden, Conn.) onto glass filters. Uptake of [^3H]hypoxanthine was measured with a Packard Topcount scintillation counter. […] This procedure was repeated with the test compounds initially dissolved in DMSO and diluted 400-fold in RPMI 1640 culture medium supplemented with 25 mM Hepes, 32 mM HaHCO3, and with blood serum replacing the 10% Albumax I® (see Table 1, figures without parentheses). The values without parentheses indicate culture in blood serum which more closely resemble conditions in a living animal.
(§4) Four strains of Plasmodium falciparum clones, from CDC Indochina III (W-2), CDC Sierra Leone I (D-6), Thai WR75-TM9, and Thai TM90C2B were utilized in susceptibility testing and the IC50 results appear in Table 1.

[3] = test system: Plasmodium falciparum clone Thai WR75-TM9; assay: In vitro inhibition of [3H]hypoxanthine uptake, P. falciparum WR75-TM9; conditions: values without parentheses: blood serum (footnote: blood plasma) replacing Albumax; for IC50: Plasmodium falciparum
Procedure: as §3, §4

[4] = test system: Plasmodium falciparum clone CDC Indochina III (W-2); assay: In vitro inhibition of [3H]hypoxanthine uptake, P. falciparum W-2 clone; conditions: Plasmodium falciparum, read-out: IC50 (W-2)
Procedure: as §1, §2

[5] = test system: Plasmodium falciparum; assay: In vitro antimalarial activity against Plasmodium falciparum (strain not given); conditions: judged from the IC50 values of Table 1
Procedure: as §3, §4

[6] = values in parentheses: culture medium with 10% Albumax I
[7] = values without parentheses: blood serum (footnote: blood plasma) replacing Albumax

Row | Compound | IC50 [1, 6] | IC50 [1, 7] | IC50 [2] | IC50 [3] | IC50 [4, 6] | IC50 [4, 7] | IC50 (WR75-TM9) [3] | effectiveness in treating/reducing malaria parasites as shown in Table 1 [5]
1 | CN(CCO)c1ccc2c(=O)n3c(nc2c1)C(=O)c1cc(Cl)ccc1-3 [Example 46] | 7.61 ng/mL (≈ 0.0214 µM) | 42.6 ng/mL (≈ 0.12 µM) | 24.4 ng/mL (≈ 0.0686 µM) | 66.4 ng/mL (≈ 0.187 µM) | 6.32 ng/mL (≈ 0.0178 µM) | 23 ng/mL (≈ 0.0646 µM) | – | –
2 | C=CCO/N=C/c1ccc2c(c1)C(=O)c1nc3ccncc3c(=O)n1-2 [Example 90] | 7.59 ng/mL (≈ 0.0228 µM) | 16.3 ng/mL (≈ 0.0491 µM) | 6.14 ng/mL (≈ 0.0185 µM) | 30 ng/mL (≈ 0.0904 µM) | 3.93 ng/mL (≈ 0.0118 µM) | 15.6 ng/mL (≈ 0.0469 µM) | – | –
3 | COc1cccc2c(=O)n3c(nc12)C(=O)c1cc(I)ccc1-3 [Example 27] | 3.01 ng/mL (≈ 0.00745 µM) | – | 41.1 ng/mL (≈ 0.102 µM) | – | 1.79 ng/mL (≈ 0.00443 µM) | – | – | –
4 | O=C1c2cc(Br)ccc2-n2c1nc1cnccc1c2=O [Example 59] | 4.37 ng/mL (≈ 0.0133 µM) | 37.9 ng/mL (≈ 0.115 µM) | 24 ng/mL (≈ 0.0732 µM) | – | 2.47 ng/mL (≈ 0.00753 µM) | 17.7 ng/mL (≈ 0.054 µM) | – | –
5 | O=C1c2cc(F)ccc2-n2c1nc1c(F)cccc1c2=O [Example 19] | 2.57 ng/mL (≈ 0.00904 µM) | 13.5 ng/mL (≈ 0.0476 µM) | 9.78 ng/mL (≈ 0.0344 µM) | – | 1.58 ng/mL (≈ 0.00556 µM) | 8.14 ng/mL (≈ 0.0286 µM) | – | –
6 | O=C1c2cc(Br)ccc2-n2c1nc1ccncc1c2=O [Example 39] | 3.57 ng/mL (≈ 0.0109 µM) | 3.57 ng/mL (≈ 0.0109 µM) | 46 ng/mL (≈ 0.14 µM) | 4.2 ng/mL (≈ 0.0128 µM) | 1.88 ng/mL (≈ 0.00573 µM) | 1.87 ng/mL (≈ 0.0057 µM) | – | –
7 | CCOC(=O)c1ccc2c(c1)C(=O)c1nc3ncccc3c(=O)n1-2 [Example 24] | 2.01 ng/mL (≈ 0.00626 µM) | 10.1 ng/mL (≈ 0.0314 µM) | 7.78 ng/mL (≈ 0.0242 µM) | – | 0.91 ng/mL (≈ 0.00283 µM) | – | – | –
8 | O=C1c2cc(F)ccc2-n2c1nc1ncccc1c2=O [Example 17] | 1.53 ng/mL (≈ 0.00573 µM) | 4.93 ng/mL (≈ 0.0184 µM) | 4.21 ng/mL (≈ 0.0157 µM) | 9.93 ng/mL (≈ 0.0372 µM) | 0.84 ng/mL (≈ 0.00314 µM) | 2.12 ng/mL (≈ 0.00795 µM) | 8.002 ng/mL (≈ 0.0299 µM) | –
9 | N#CC(C#N)=c1c2cc(F)ccc2n2c(=O)c3ccccc3nc12 [Example 57] | 20.3 ng/mL (≈ 0.0647 µM) | 46.5 ng/mL (≈ 0.148 µM) | 62.2 ng/mL (≈ 0.198 µM) | 82.6 ng/mL (≈ 0.263 µM) | 10.6 ng/mL (≈ 0.0337 µM) | 28.9 ng/mL (≈ 0.0921 µM) | – | –
10 | COC(c1ccc2c(c1)C(=O)c1nc3ccncc3c(=O)n1-2)C(C)C (stereo not shown) [Example 73] | 5.4 ng/mL (≈ 0.0161 µM) | 4.89 ng/mL (≈ 0.0146 µM) | 4.46 ng/mL (≈ 0.0133 µM) | 10.5 ng/mL (≈ 0.0313 µM) | 3.75 ng/mL (≈ 0.0112 µM) | 2.85 ng/mL (≈ 0.00851 µM) | – | –
11 | O=C1c2cc(OC(F)(F)F)ccc2-n2c1nc1ccncc1c2=O [Example 63] | 3.16 ng/mL (≈ 0.00948 µM) | 0.946 ng/mL (≈ 0.00284 µM) | 1.16 ng/mL (≈ 0.00349 µM) | 1.97 ng/mL (≈ 0.0059 µM) | 1.5 ng/mL (≈ 0.0045 µM) | 1.23 ng/mL (≈ 0.00369 µM) | – | most effective
12 | Cc1ncc2c(=O)n3c(nc2n1)C(=O)c1cc(Cl)ccc1-3 [Example 55] | 7.2 ng/mL (≈ 0.0241 µM) | 11.2 ng/mL (≈ 0.0376 µM) | 5.48 ng/mL (≈ 0.0184 µM) | 14.2 ng/mL (≈ 0.0476 µM) | 2.1 ng/mL (≈ 0.00703 µM) | 2.3 ng/mL (≈ 0.00771 µM) | – | –
